Among the data in publication doi:10.1101/2019.12.11.872838v1 (biorxiv, 2019) are IC50 values, retold here.

pIC50: −log10 of the molar value.

The assay addresses KDM1A (Homo sapiens, UniProt O60341). Put plainly: ALPHA screen demethylation assay. In kind it is biochemical.

`CO[C@H]1/C=C\C=C(/C)C(=O)NC2=CC(=O)C(NCCN(C)C)=C(C[C@@H](C)C[C@H](OC)[C@H](O)[C@@H](C)/C=C(\C)[C@@H]1OC(N)=O)C2=O` [17-DMAG] gave a pIC50 of under 5.00.
